PubChem BioAssay AID2060612 (Molecular Pharmacology Branch, DTP, NCI, 2025)

Test system: 565232-114-T-J1-PDC complex spheroid viability
Experiment: Anticancer human tumor 565232-114-T-J1-PDC patient-derived bladder carcinoma cell line growth inhibition [CLK]
Details: for IC50: curve of first compound; for viability, T/C: stronger effect = lower value
Outline: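 Patient-derived tumor cells grown as complex spheroids with HUVEC endothelial cells and mesenchymal stem cells, treated with drug combinations. Concentrations descend in half-log steps from near clinical Cmax, or from 10 microM if Cmax unknown.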
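Further: spheroids exposed to compounds for 7 days before readout.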
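Wherever viability, T/C is given: 100% = DMSO vehicle wells with luminescence normalized to vehicle control.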

Compound: O=c1[nH]cc(F)c(=O)[nH]1 + CNC(=O)c1ccc(Nc2nc(OC3CCCC3)c3c(-c4ccc5nc(C)oc5c4)c[nH]c3n2)c(OC)c1
- IC50 (second compound 0.0316 µM): > 10000 nM
- IC50 (second compound 0.1 µM): < 31.6 nM
- IC50 (second compound 0.316 µM): < 31.6 nM
- IC50 (second compound 1 µM): < 31.6 nM
- IC50 (second compound 3.16 µM): < 31.6 nM
- IC50 (second compound 10 µM): < 31.6 nM
- viability, T/C (second compound 0.0316 µM, first compound 0.0316 µM): 84.3%
- viability, T/C (second compound 0.0316 µM, first compound 0.1 µM): 96.8%
- viability, T/C (second compound 0.0316 µM, first compound 0.316 µM): 97.1%
- viability, T/C (second compound 0.0316 µM, first compound 1 µM): 108%
- viability, T/C (second compound 0.0316 µM, first compound 3.16 µM): 87.3%
- viability, T/C (second compound 0.0316 µM, first compound 10 µM): 72.4%
- viability, T/C (second compound 0.1 µM, first compound 0.0316 µM): 44%
- viability, T/C (second compound 0.1 µM, first compound 0.1 µM): 50%
- viability, T/C (second compound 0.1 µM, first compound 0.316 µM): 44%
- viability, T/C (second compound 0.1 µM, first compound 1 µM): 48%
- viability, T/C (second compound 0.1 µM, first compound 3.16 µM): 41%
- viability, T/C (second compound 0.1 µM, first compound 10 µM): 46.1%
- viability, T/C (second compound 0.316 µM, first compound 0.0316 µM): 29.7%
- viability, T/C (second compound 0.316 µM, first compound 0.1 µM): 31.4%
- viability, T/C (second compound 0.316 µM, first compound 0.316 µM): 31.2%
- viability, T/C (second compound 0.316 µM, first compound 1 µM): 36%
- viability, T/C (second compound 0.316 µM, first compound 3.16 µM): 35.3%
- viability, T/C (second compound 0.316 µM, first compound 10 µM): 40.1%
- viability, T/C (second compound 1 µM, first compound 0.0316 µM): 20.1%
- viability, T/C (second compound 1 µM, first compound 0.1 µM): 21%
- viability, T/C (second compound 1 µM, first compound 0.316 µM): 19.4%
- viability, T/C (second compound 1 µM, first compound 1 µM): 23.1%
- viability, T/C (second compound 1 µM, first compound 3.16 µM): 23.8%
- viability, T/C (second compound 1 µM, first compound 10 µM): 28.5%
- viability, T/C (second compound 3.16 µM, first compound 0.0316 µM): 16.9%
- viability, T/C (second compound 3.16 µM, first compound 0.1 µM): 16.4%
- viability, T/C (second compound 3.16 µM, first compound 0.316 µM): 17.8%
- viability, T/C (second compound 3.16 µM, first compound 1 µM): 19.6%
- viability, T/C (second compound 3.16 µM, first compound 3.16 µM): 18.6%
- viability, T/C (second compound 3.16 µM, first compound 10 µM): 21.3%
- viability, T/C (second compound 10 µM, first compound 0.0316 µM): 21.3%
- viability, T/C (second compound 10 µM, first compound 0.1 µM): 16.1%
- viability, T/C (second compound 10 µM, first compound 0.316 µM): 18.2%
- viability, T/C (second compound 10 µM, first compound 1 µM): 19.9%
- viability, T/C (second compound 10 µM, first compound 3.16 µM): 18.1%
- viability, T/C (second compound 10 µM, first compound 10 µM): 18.9%
